Assay results: article PMC7525151 (Frontiers in Microbiology, 2020)

What was measured:
TeFum [1] = target: T1, TeFum (Thermosynechococcus vestitus, UniProt Q8DIP7); experiment: A240 absorbance, Michaelis-Menten fit; type: biochemical; design: gene fumC; N-terminal GST tag (pGEX6P-1, BamHI-XhoI) kept; codon-optimized synthetic gene; E. coli BL21(DE3); glutathione-Sepharose purified; conditions: fumarate hydration; 100 mM Tris-HCl pH 7.0; 50 °C
CmFUM = target: T2, CmFUM (Cyanidioschyzon merolae, UniProt M1VAI8); experiment: A240 absorbance, Michaelis-Menten fit; type: biochemical; conditions: fumarate hydration; 100 mM Tris-HCl pH 7.5; 52 °C
T2 construct: gene CYME_CMD058C; N-terminal GST tag (pGEX6P-1, BamHI-XhoI) kept; codon-optimized synthetic gene; E. coli BL21(DE3); glutathione-Sepharose purified
T2 sequence (M1VAI8 1-553): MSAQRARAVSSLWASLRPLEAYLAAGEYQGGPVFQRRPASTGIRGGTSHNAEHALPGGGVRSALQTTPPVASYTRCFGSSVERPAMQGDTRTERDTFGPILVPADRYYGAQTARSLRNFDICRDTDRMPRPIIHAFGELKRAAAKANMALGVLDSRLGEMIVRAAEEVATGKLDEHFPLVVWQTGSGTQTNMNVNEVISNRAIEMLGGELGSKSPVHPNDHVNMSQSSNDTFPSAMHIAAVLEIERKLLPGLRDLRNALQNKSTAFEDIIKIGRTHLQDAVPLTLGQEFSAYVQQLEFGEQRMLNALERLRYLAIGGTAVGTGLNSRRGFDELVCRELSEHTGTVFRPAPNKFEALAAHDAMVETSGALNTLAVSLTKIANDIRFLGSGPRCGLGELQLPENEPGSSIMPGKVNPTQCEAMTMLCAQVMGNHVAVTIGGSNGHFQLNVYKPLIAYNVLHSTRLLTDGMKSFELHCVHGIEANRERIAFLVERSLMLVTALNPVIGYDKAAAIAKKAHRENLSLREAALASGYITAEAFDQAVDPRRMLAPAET

TeFum [2] = target: T1, TeFum; experiment: relative activity with effector, A240 absorbance; design: gene fumC; conditions: activator in the fumarate direction; 0.14 mM fumarate, pH 7.0, 50 °C; sodium salt

T1 sequence (Q8DIP7 whole entry): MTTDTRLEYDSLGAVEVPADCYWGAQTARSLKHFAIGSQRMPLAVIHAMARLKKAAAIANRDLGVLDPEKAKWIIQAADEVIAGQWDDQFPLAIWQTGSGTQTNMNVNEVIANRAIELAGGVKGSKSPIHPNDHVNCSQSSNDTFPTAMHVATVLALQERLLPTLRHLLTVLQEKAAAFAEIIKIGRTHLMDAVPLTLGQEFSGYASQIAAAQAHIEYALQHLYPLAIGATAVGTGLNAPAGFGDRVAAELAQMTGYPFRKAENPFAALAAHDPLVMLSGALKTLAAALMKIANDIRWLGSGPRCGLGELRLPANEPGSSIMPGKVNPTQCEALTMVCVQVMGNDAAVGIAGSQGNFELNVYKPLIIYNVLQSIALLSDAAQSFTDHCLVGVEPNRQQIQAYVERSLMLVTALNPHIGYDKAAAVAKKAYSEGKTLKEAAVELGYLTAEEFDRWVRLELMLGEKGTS

| Compound | Km (TeFum [1]) [µM] | Km (CmFUM) [µM] | relative activity (TeFum [2]) |
| --- | --- | --- | --- |
| O=C(O)/C=C/C(=O)O [fumarate] | 140 ± 20 | 270 ± 50 | – |
| CC(=O)C(=O)O [pyruvate] | – | – | pyruvate increased the TeFum activity for fumarate (Figure 4B). |
